Results as given in EPA's ToxValDB 9.5.
Several values for one entry are separate records, joined by “and”; a condition that tells them apart may be missing. Identical values can stand only once. Counter-ions that a name gives are not always drawn.

System: Rattus norvegicus
Details: for LC50 / LD50: acute
[1] = reproduction developmental, oral, gavage, Wistar
[2] = repeat dose other, inhalation, Sprague-Dawley
[3] = subchronic, duration: 3 months, inhalation, Sprague-Dawley
[4] = chronic, duration: 16 weeks, oral, diet, Wistar

COC(=O)CC(C)(C)C(Cl)CC(Cl)(Cl)Cl (stereo not given)
LC50 (inhalation, Sprague-Dawley): > 66.6 mg/m3
LD50 (oral, Sprague-Dawley): > 5000 mg/kg

CC(C)C(=O)OCC(C)(C)C(OC(=O)c1ccccc1C(=O)OCc1ccccc1)C(C)C (stereo not given)
LD50 (oral, gavage, Sprague-Dawley): > 18500 mg/kg

CC(C)CC(C)OP(=S)([S-])OC(C)CC(C)C.CC(C)CC(C)OP(=S)([S-])OC(C)CC(C)C.[Zn+2] (stereo not given)
LD50 (oral, gavage, Sprague-Dawley): ≥ 2000 mg/kg and ≤ 5000 mg/kg

COC(=O)C1C(C=C(Cl)Cl)C1(C)C (stereo not given)
LD50 (oral, gavage, Sprague-Dawley): > 5000 mg/kg
NOAEL (reproduction developmental, duration: 28 days, oral, gavage, Sprague-Dawley): 450 mg/kg-day

Cc1cccc2[nH]c([S-])nc12.Cc1cccc2[nH]c([S-])nc12.[Zn+2]
LD50 (dermal, semiocclusive, Sprague-Dawley): > 2000 mg/kg
LC50 (inhalation, Sprague-Dawley): > 2.03 µg/mL
LD50 (oral): 800 mg/kg

c1ccc(-c2cccc(-c3ccccc3)c2)cc1 [1,1':3',1''-Terphenyl]
LD50 (oral, gavage, Sprague-Dawley): 2400 mg/kg
LOAEL (% diet) (short-term, duration: 14 days, oral, diet, Wistar): 0.2

O=C1OCCO1 [1,3-Dioxolan-2-one]
LD50 (dermal, Wistar): > 2000 mg/kg
LD50 (oral, Sprague-Dawley): > 5000 mg/kg
NOAEL (reproduction developmental, duration: 9 days, oral, gavage, F, Sprague-Dawley): 1500 mg/kg-day and 750 mg/kg-day

C1=C\CC/C=C\CC/1 [1,5-Cyclooctadiene]
LD50 (dermal, occlusive, Crl:CD1): > 3520 mg/kg
LD50 (oral): 2380 mg/kg
NOAEL (short-term, duration: 2 weeks, inhalation, M): 664 mg/m3

C=CCC [1-Butene]
NOAEL (reproduction developmental, duration: 28 days, inhalation, Sprague-Dawley, generation: F0): 18400 mg/m3
NOAEL (reproduction developmental, inhalation, F, Sprague-Dawley): 18400 mg/m3
NOAEL (reproduction developmental, inhalation, M, Sprague-Dawley): 18400 mg/m3
NOAEL (reproduction developmental, inhalation, Sprague-Dawley, generation: F0): 18400 mg/m3
NOAEL (reproduction developmental, inhalation, Sprague-Dawley, generation: F1): 18400 mg/m3

O=[N+]([O-])c1cccc(Cl)c1 [1-Chloro-3-nitrobenzene]
LD50 (oral, gavage, Sprague-Dawley): 400 mg/kg

CCC(C)(C#N)N=NC(C)(C#N)CC (stereo not given) [2,2'-Azobis(2-methylbutanenitrile)]
LD50 (oral, Sprague-Dawley): 337 mg/kg

Clc1cc(Cl)c(Cl)nc1Cl [2,3,5,6-Tetrachloropyridine]
LD50 (oral): ≥ 1180 mg/kg and ≤ 1410 mg/kg
LD50 (oral, gavage): 1000 mg/kg
NOAEL (chronic, duration: 91 days, oral, diet, Sherman Wistar): 100 mg/kg-day
NOAEL (reproduction developmental, duration: 52 days, oral, gavage, F, Sprague-Dawley): 25 mg/kg-day
NOAEL (reproduction developmental, duration: 52 days, oral, gavage, M, Sprague-Dawley): 150 mg/kg-day
NOAEL (reproduction developmental, duration: 52 days, oral, gavage, Sprague-Dawley): 150 mg/kg-day
NOAEL (reproduction developmental, duration: 52 days, oral, gavage, Sprague-Dawley, generation: F1): 150 mg/kg-day
NOAEL (subchronic, duration: 52 days, oral, gavage, F, Sprague-Dawley): 25 mg/kg-day
NOAEL (subchronic, duration: 52 days, oral, gavage, M, Sprague-Dawley): 150 mg/kg-day

CC(C)(C)c1cc(C(C)(C)C)c(O)c(C(C)(C)C)c1 [2,4,6-Tris(tert-butyl)phenol]
LD50 (oral, Wistar): 1610 mg/kg and 1670 mg/kg
NOAEL (chronic, duration: 24 months, oral, diet, Wistar): 2.34 mg/kg-day

CC=C(C)C [2-Methyl-2-butene]
NOAEL (reproduction developmental, duration: 28 days, inhalation, Sprague-Dawley): 1660 mg/m3
NOAEL (reproduction developmental, inhalation, Sprague-Dawley): 20100 mg/m3

CC(CC(=O)O)CC(C)(C)C (stereo not given) [3,5,5-Trimethylhexanoic acid]
NOAEL (reproduction developmental, oral, diet, F, Sprague-Dawley): 1200 ppm
NOAEL (reproduction developmental, oral, diet, Sprague-Dawley, generation: F1): 1200 ppm

Cc1ccc(S(=O)(=O)O)cc1 [4-Methylbenzenesulfonic acid]
LD50 (oral, Wistar): 1410 mg/kg
NOAEL (short-term, duration: 28 days, oral, Wistar): > 500 mg/kg-day

C=CCCC#N [4-Pentenenitrile]
LC50 (inhalation, Sprague-Dawley): 8460 mg/m3

CSC(C)(C)/C=N/O [Aldicarb oxime]
LD50 (oral, Wistar): 809 mg/kg
LOAEL [1]: 25 mg/kg-day
NOAEL [1]: 5 mg/kg-day

CC(C)CC(C)OC(=O)/C=C\C(=O)OC(C)CC(C)C (stereo not given) [Bis(1,3-dimethylbutyl) maleate]
LD50 (oral, gavage, Wistar): 7460 mg/kg

CC(=O)C(N=Nc1ccc(-c2ccc(N=NC(C(C)=O)C(=O)Nc3ccccc3)c(Cl)c2)cc1Cl)C(=O)Nc1ccccc1 (stereo not given) [C.I. Pigment Yellow 12]
NOAEL (reproduction developmental, oral, gavage, Wistar, generation: F0): 1000 mg/kg-day
NOAEL (reproduction developmental, oral, gavage, Wistar, generation: F1): 1000 mg/kg-day

CC(=O)C(=NNc1ccc(-c2ccc(NN=C(C(C)=O)C(=O)Nc3ccc(C)cc3C)c(Cl)c2)cc1Cl)C(=O)Nc1ccc(C)cc1C [C.I. Pigment Yellow 13]
NOAEL (chronic, oral, gavage): 500 mg/kg-day

CCCCCCCCCCCCOCCOCCOS(=O)(=O)[O-].[Na+] [Diethylene glycol monolauryl ether sulfate sodium salt]
LD50 (oral, gavage, Sprague-Dawley): > 5000 mg/kg

CC(C)OC(=O)CCCCC(=O)OC(C)C [Diisopropyl adipate]
LD50 (oral): > 15000 mg/kg

CCCCCCCCCCCCCCN(C)C [Dimethyl(tetradecyl)amine]
LD50 (oral, gavage): 2120 mg/kg
LD50 (oral, gavage, Wistar): 1320 mg/kg

c1ccc(Oc2ccccc2)cc1 [Diphenyl oxide]
LD50 (oral, gavage, Sprague-Dawley): 2450 mg/kg
NOAEL (developmental, duration: 10 days, oral, gavage, Sprague-Dawley): ≥ 500 mg/kg-day
NOAEL (reproduction developmental, duration: 10 days, oral, gavage, F, Sprague-Dawley): ≥ 50 mg/kg-day
NOAEL (subchronic, duration: 13 weeks, oral, diet, Sprague-Dawley): > 480 mg/kg-day

CCCCCCCCCCCOC(=O)c1ccccc1C(=O)OCCCCCCCCCCC [Diundecyl phthalate]
NOAEL (short-term, duration: 21 days, oral, diet, Fischer 344): 282 mg/kg-day

O=C(OCCOCCOCCOC(=O)c1ccccc1)c1ccccc1 [Ethylenebis(oxyethylene) dibenzoate]
LD50 (dermal, Sprague-Dawley): > 2000 mg/kg
LD50 (oral, Sprague-Dawley): 4190 mg/kg and 3540 mg/kg and 4840 mg/kg
NOAEL (developmental, duration: 14 days, oral, gavage, Sprague-Dawley): 1000 mg/kg-day
NOAEL (subchronic, duration: 13 weeks, oral, diet, F): 1000 mg/kg-day
NOAEL (subchronic, duration: 13 weeks, oral, diet, M): 1000 mg/kg-day

Fc1ccccc1 [Fluorobenzene]
LC50 (inhalation): 26900 mg/m3
NOAEL (short-term, duration: 28 days, inhalation, F, Sprague-Dawley): 0.37 mg/L
NOAEL (short-term, duration: 28 days, inhalation, M, Sprague-Dawley): 0.37 mg/L

CCCCCCC(C)OC(=O)CCCCC(=O)OC(C)CCCCCC (stereo not given) [Hexanedioic acid, bis(1-methylheptyl) ester]
LD50 (oral, gavage): > 64000 mg/kg

CCCCCCCCCCCCCCCCCC(=O)[O-].[Li+] [Lithium octadecanoate]
LC50 (oral): ≥ 5000 mg/kg and ≤ 15000 mg/kg

CS [Methanethiol]
LC50 (inhalation, Sprague-Dawley): 1330 mg/m3 and ≥ 1260 mg/m3 and ≤ 1390 mg/m3
LC50 (inhalation, WBS/W): 3310 mg/m3 and ≥ 2810 mg/m3 and ≤ 3900 mg/m3
LOAEL [2]: 112 mg/m3
NOAEL [2]: 33.4 mg/m3
LOAEL [3]: 112 mg/m3
NOAEL [3]: 33.4 mg/m3

CCCCCCCCCCCCCCCCN(C)C [N,N-Dimethyl-1-hexadecanamine]
LD50 (oral, gavage): 1020 mg/kg
LD50 (oral, gavage, Sprague-Dawley): > 2000 mg/kg

O=P(O)(O)c1ccccc1 [Phenylphosphonic acid]
LD50 (dermal, occlusive, Crl:CD(SD) BR): > 2000 mg/kg

CCCCOP(=O)(O)OCCCC [Phosphoric acid, dibutyl ester]
NOAEL (subchronic, oral, gavage, Sprague-Dawley): 30 mg/kg-day

CCCCCCCC/C=C\CCCCCCCC(=O)OC[C@@H](O)[C@H]1OC[C@H](O)[C@H]1O [Sorbitan, mono-(9Z)-9-octadecenoate]
LD50 (oral, gavage): > 39800 mg/kg
LD50 (oral, gavage, Wistar): > 39800 mg/kg
LOAEL (% diet) [4]: 2.5
NOAEL [4]: 1700 mg/kg-day
NOAEL (chronic, oral, diet): 1450 mg/kg-day
NOAEL (% diet) (chronic, oral, diet): 2.5

c1ccc(-c2cccc(-c3ccccc3)c2)cc1 [Terphenyl]
LC50 (oral, gavage, Sprague-Dawley): > 5000 mg/kg

CC(O)CN(CC(C)O)CC(C)O (stereo not given) [Triisopropanolamine]
LD50 (oral, gavage, Wistar): 6500 mg/kg
NOAEL (chronic, duration: 102 weeks, oral, diet, Wistar): > 1220 mg/kg-day
NOAEL (developmental, duration: 6 days, oral, gavage, Wistar): ≥ 1000 mg/kg-day
NOAEL (reproduction developmental, duration: 6 days, oral, gavage, F, Wistar): 400 mg/kg-day

CCCCCCCCCCCC#N [n-Undecyl cyanide]
LD50 (oral): > 3400 mg/kg
